PMC5662078, “Doliroside A from Dolichos falcata Klein suppressing amyloid β-protein 42 fibrillogenesis: An insight at molecular level” (PLoS ONE, 2017)

Biological target: T1, amyloid β-protein 42 (Aβ42) (Homo sapiens, UniProt P05067)
T1 construct: gene APP
Test: ThT fluorescence fibrillation assay of synthetic Aβ[…]); supported by DSC Tm shifts, CD and AFM
Type: biochemical

T1 sequence (P05067 672-713): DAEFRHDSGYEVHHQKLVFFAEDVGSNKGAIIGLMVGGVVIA

IC50: 26.6 ± 1.6 µM
SMILES: COC(=O)[C@]1(C)C(OC2OC(CO)C(O)C(O)C2O)[C@@H](O)C[C@@]2(C)C1CC[C@]1(C)C2CC=C2[C@@H]3CC(C)(C)CCC3(C(=O)O)CC[C@]21C (stereo partly shown) [DA, doliroside A]
